Article PMC10384610, “Combining nonsense mutation suppression therapy with nonsense-mediated decay inhibition in neurofibromatosis type 1” (Molecular Therapy. Nucleic Acids, 2023)
Read-outs that look alike come from different tables or passages of the source.

What was measured:
[1] = test system: NF1^R1947∗ mutation dual luciferase reporter in iPNF95.6 cells; assay: Dual luciferase reporter (DLR) readthrough assay in human Schwann cells; format: cell-based; conditions: human Schwann cells iPNF95.6, 48 h, normalized to Renilla
Text: (§1) The NF1^R1497X DLR plasmid was kindly provided by David Bedwell at University of Alabama. The Renilla-NF1-R1947X-Firefly insert contains 30 nucleotides surrounding the premature termination codon in NF1-R1947X inserted between the Renilla and Firefly genes. The 30-base pair readthrough cassette contains NF1^R1497X (G TCGACGGATGCCAAATGACAAAGAGTTGGATCC). Plasmids were amplified in DH5a E. coli using ampicillin selection and purified using a Qiagen miniprep kit, according to the manufacturer’s protocol. To produce stable cell cultures, we used Gateway cloning to transfer the DLR insert to a hygromycin-resistant PiggyBac Sleeping Beauty (PBSB) transposon vector. Briefly, a GBlock containing the DLR insert sequence and attB sites was cloned into the pDONR221 vector using BP clonase to produce pENTR-Renilla-NF1-R1947X-Firefly. This was cloned into the PBSB vector using LR clonase to produce pPBSB-CG-Renilla-NF1-R1947X-Firefly-PGK-Hygro, which was confirmed by DNA sequencing. Schwann cells were grown to 80% confluency and transfected with the PBSB transposon and PB7 (PiggyBac transposase) (5 μg each/ 1million cells) using the Neon electroporation system (Invitrogen #MPK10096). […] The DLR assay system (Promega) was used to detect readthrough, according to the manufacturer’s instructions. Luminescence was measured using the Cytation 5 plate reader. […]

NF1^NS/+ Schwann cells = assay: Western blot of neurofibromin and p-ERK in NF1^NS/+ Schwann cells treated with nonsense suppression drugs; format: cell-based, minipig; conditions: for neurofibromin increase in NF1^NS/+ Schwann cell cultures: multiple concentrations (Table S2), 24, 48 or 72 h, 3 biological replicates
Experimental: (§2) Schwann cells were isolated as previously described.[9]^,[18] Sciatic nerve or cutaneous neurofibroma were biopsied from WT or NF1^R1947/+ minipigs and transported in Dulbecco’s Modified Eagle’s Medium (DMEM; Thermo) containing 10% fetal bovine serum (FBS; Thermo) and 1% Antibiotic/Antimycotic (AA; Thermo). In a laminar flow hood, specimens were rinsed in 70% ethanol and phosphate-buffered saline (PBS; VWR 16750-078) by briefly dipping into each solution 10 times. Tissues were minced and incubated at 37°C, 5% CO2 in dissociation media containing DMEM with 10% FBS, 1% AA, 1x collagenase A (Thermo), and 1x dispase II (Roche) overnight in a Petri dish, then transferred to a conical and centrifuged at 270 × g for 5 min. Cells were plated onto a poly-L-lysine (0.05 mg/mL) and laminin-coated (10 μg/mL) six-well plate and cultured in complete media containing DMEM with high-glucose (GIBCO) supplemented with 10% FBS (GIBCO), forskolin (2 μM) (Calbiochem), 1% N2 supplement (Thermo), recombinant human neuregulin-b1 (NRG1) (10 ng/mL) (R&D Systems), and 1% AA. Media was replaced every 2 days. Schwann cells were separated from contaminating fibroblasts via magnetic cell selection, as described.[9]^,[18] Purified Schwann cells were expanded and stored in liquid nitrogen at low passage and vials were thawed immediately prior to use in experiments to maintain low-passage cells.
(§3) For extraction of protein from cells, snap frozen pellets were briefly thawed on ice and resuspended in RIPA buffer (Sigma) containing protease (Sigma) and phosphatase inhibitors (Sigma), then vortexed at 2,000 rpm at 4°C for 20 min, then centrifuged at 4°C for 15 min at 20,000 × g. For extraction of protein from tissues, snap frozen tissues were thawed briefly on ice, then 50 to 80 mg of tissue was transferred to a 2-mL microtube containing ceramic homogenizers (Agilent Technologies) and homogenized using a Bead Blaster (Benchmark Scientific) at 4,260 rpm, 7 m/s linear speed, 3 cycles of 30 s at 4°C. Homogenates were centrifuged at 13,000 rpm for 3 min at 4°C, then supernatants were transferred to new tubes and sonicated at an amplitude of 20A for 10 s at 4°C, vortexed at 2,000 rpm at 4°C for 20 min, then centrifuged at 20,000 × g at 4°C for 15 min.
(§4) Protein lysates from cells or tissues were quantified using a BCA assay (Thermo). Twenty to 30 μg of protein was denatured at 95°C for 5 min and separated by electrophoresis using SDS on 1.5-mm NuPAGE 4–12% Bis-Tris protein gels (Thermo). Protein was transferred to Immun-Blot PVDF Membrane (Bio-Rad) overnight (16–20 h) at 18 V, 4°C. Membranes were cut according to target molecular weights and blocked at room temperature (RT) for 1 h using 5% blocking grade buffer (Bio-Rad) in TBST (Tris-buffered saline, 0.1% Tween 20) (Sigma). Membranes were incubated with primary antibody overnight at 4°C and washed with TBST three times for 5 min at RT, then incubated with horseradish peroxidase-conjugated secondary antibody for 1 h at RT and washed again as described above. All washes and incubations were performed on a rocking platform. Blots were developed with the WesternBright Quantum Kit (Advansta). Bands were imaged using the Li-Cor Odyssey Fc Imaging System, quantified by densitometry, and normalized to HSP90.
Ataluren (MedChem Express) was reconstituted in sterile dimethyl sulfoxide (DMSO) to a stock concentration of 10 mM and stored at −80°C. […]

NF1^NS/− Schwann cells = assay: Western blot of neurofibromin and p-ERK in NF1^NS/− Schwann cells (LOH) treated with nonsense suppression drugs; format: cell-based, minipig; conditions: concentrations of Table S2, 24, 48 or 72 h
Experimental: as §2, §3, §4
Ataluren (MedChem Express) was reconstituted in sterile dimethyl sulfoxide (DMSO) to a stock concentration of 10 mM and stored at −80°C. Cells were seeded in complete media at a density of 0.3 × 10^6 cells/plate in 10-cm plates. Media was changed 24 h later to complete media without AA and containing vehicle or drugs at indicated concentrations. Cells were harvested 24, 48, and 72 h after drug treatment and divided for protein and/or RNA extraction.

[2] = test system: NF1^R1947∗ mutation dual luciferase reporter in NF1^NS/− Schwann cells; assay: Dual luciferase reporter (DLR) readthrough assay in minipig Schwann cells; format: cell-based; conditions: minipig NF1^NS/− cNF Schwann cells, 48 h, normalized to Renilla
Text: as §1

[3] = murine models of DMD and CF, subcutaneous once daily 34 mg/kg, suppresses PTCs; cited from earlier work
[4] = NF1 minipig (NF1^R1947*/+), in vivo, 30 min
Experimental: Tissues were prepared with a homogenization solution containing collagenase.

[5] = human patients with DMD or CF, once daily intravenous infusion 7.5–10 mg/kg; cited from earlier work
in vivo = conditions: sc
Experimental: Human equivalent doses (HED) were determined by allometric scaling using the standard conversion coefficient (Km), where Km = 1.1 for minipig and HED determination. Consequently, a 7.5-mg/kg human equivalent dose was 8.25 mg/kg. The required volume of drug for each animal was then based on individual body weight and determined on the day of administration.
(§5) Tissue samples (skin, sciatic nerve, optic nerve, and cortex) were collected from each animal at the same approximate locations and divided for analysis.
Plasma isolations were performed as described in a previous study.[10] Briefly, serial whole blood samples (1.5 mL) were collected from the jugular vein into lithium heparin vacutainer tubes. Samples were immediately transferred to a 1.7-mL microfuge tube and centrifuged at 2,000 × g for 10 min at 4°C. Supernatant (plasma) was transferred to a cryovial and stored at −80°C until analysis. […] Assay analytical measurement ranged from 0.2 to 12 mg/L, and samples with results higher than 12 mg/L were diluted appropriately and re-analyzed. Within-run precision is 0.3% CV, between-day precision is 0.4% CV, and accuracy is 99.8% (correlation coefficient). For each tissue type (skin, sciatic nerve, optic nerve, and cerebral cortex), samples were analyzed commercially using liquid chromatography with tandem mass spectrometry (LC-MS/MS; BioAgilytix, San Diego, CA). […] Standard curves and quality controls were prepared with untreated tissues. Tissues were prepared with a homogenization solution containing collagenase. […] The LC-MS/MS system consisted of a Waters Acquity UPLC (Milford, MA) coupled with a Waters Xevo TQ-S Micro Triple Quad mass spectrometer (Milford, MA). Mass transition data were acquired in electrospray positive ion (ESI^+) mode and captured using MassLynx 4.1 (Waters, Milford, MA).
Pharmacokinetic parameters and measures of systemic exposure included area under the concentration-time curve (AUC; linear up, log down), maximum concentration (Cmax), time to Cmax (Tmax), and half-life (t1/2).

[6] = Tolerability and renal parameters in NF1 minipigs; format: in vivo, minipig; conditions: sc 8.25 mg/kg once daily for 14 days
[7] = test system: neurofibromin and p-ERK protein levels; assay: Pharmacodynamics: western blot of neurofibromin and p-ERK in NF1 minipig tissues; format: in vivo; conditions: treated (n = 5) vs untreated controls (n = 4), sc 8.25 mg/kg daily 14 days
Text: as §5

[8] = parameters: method as in PMID 33978635; conditions: NF1 minipigs compared with WT minipigs; cited from earlier work
[9] = NF1^NS/+ Schwann cells, 100 μg/mL, 48 h

CN[C@@H]1[C@@H](O)[C@@H](O[C@@H]2[C@@H](O)[C@H](O[C@H]3O[C@H]([C@@H](C)O)[C@@H](O)[C@H](O)[C@H]3N)[C@@H](N)C[C@H]2N)OC[C@]1(C)O [G418]
firefly luciferase activity compared with vehicle-treated cells [1]: significant and dose-dependent increase | neurofibromin (NF1^NS/+ Schwann cells; [9]): increased in all three replicates | p-ERK (NF1^NS/+ Schwann cells; [9]): paradoxically increased | neurofibromin increase in NF1^NS/+ Schwann cell cultures (NF1^NS/+ Schwann cells): not consistent between replicates or did not exhibit a dose- or time-dependent increase | nonsense suppression through expression of neurofibromin (NF1^NS/− Schwann cells): no indication of nonsense suppression through expression of neurofibromin | reduction in p-ERK (NF1^NS/− Schwann cells): not a corresponding reduction in p-ERK | firefly luciferase activity compared with vehicle-treated cells [2]: significant and dose-dependent increase

O=C(O)c1cccc(-c2noc(-c3ccccc3F)n2)c1 [ataluren]
nonsense suppression through expression of neurofibromin (NF1^NS/− Schwann cells): no indication of nonsense suppression through expression of neurofibromin | reduction in p-ERK (NF1^NS/− Schwann cells): not a corresponding reduction in p-ERK

CNC(C)C1CCC(N)C(OC2C(N)CC(N)C(OC3OCC(C)(O)C(NC)C3O)C2O)O1 (centres unmarked) [gentamicin]
peak plasma concentration (Cmax) [3]: 40000 to 60000 ng/mL | difference of mean tissue concentrations from cortex (lowest) to sciatic nerve (highest) [4]: up to 8 fold | Cmax [5]: 20000 to 40000 ng/mL | Cmax (in vivo; NF1 minipig, 8.25 mg/kg, Cmax): 38000 ng/mL | half-life (in vivo; NF1 minipig, 8.25 mg/kg, t1/2): 1.82 h | Cmax (in vivo; Ossabaw, minipig, 8.25 mg/kg, mean Cmax): 38000 ng/mL | Cmax (in vivo; Ossabaw, minipig, 8.25 mg/kg, target Cmax reached): 40000 ng/mL | changes in PK parameters after 14 days (in vivo; minipig): no significant changes in PK parameters | neurofibromin, dose trend (NF1^NS/+ Schwann cells; NF1^NS/+ Schwann cells, 250 or 500 μg/mL, 48 h, not replicated in other cultures): linear increase in neurofibromin at 48 h in one replicate | neurofibromin increase in NF1^NS/+ Schwann cell cultures (NF1^NS/+ Schwann cells): not consistent between replicates or did not exhibit a dose- or time-dependent increase | nonsense suppression through expression of neurofibromin (NF1^NS/− Schwann cells): no indication of nonsense suppression through expression of neurofibromin | reduction in p-ERK (NF1^NS/− Schwann cells): not a corresponding reduction in p-ERK | tolerability, renal parameters including serum creatinine and blood urea nitrogen [6]: well tolerated with no significant changes in renal parameters | neurofibromin protein expression in other tissues (cortex, sciatic nerve) [7]: no significant change | p-ERK downregulation in tissues (optic nerve, cortex, sciatic nerve, skin) [7]: not significant in any tissues | neurofibromin protein expression in optic nerve tissue ([7]; p = 0.01): higher

Cn1cnc2c(F)c(Nc3ccc(Br)cc3Cl)c(C(=O)NOCCO)cc21 [selumetinib]
concentration in the brain [8]: reaches higher concentrations in the brain of NF1 minipigs compared with WT minipigs
